Legend:
[1] = Catalytic NO generation by ditelluride compounds via chemiluminescence NO analyzer (NOA); format: biochemical
Procedure: FIG. 19A also depicts other measurements of catalytic NO generation by ditelluride compounds. […] The rate of NO generation slowly decreases with time to reach a steady-state that lasts until all of the GSNO is consumed.

[2] = NO generation by diorgano ditelluride from GSNO and GSH monitored by NOA; format: biochemical; settings: GSNO and GSH in PBS pH 7.4, EDTA, ambient temperature; FIG. 13

O=C(O)c1ccc([Te][Te]c2ccc(C(=O)O)s2)s1 [DTDTCA 2, 5,5′-ditelluro-2,2′-dithiophenecarboxylic acid]
NO signal upon adding catalytic amounts ([1]; 2.5 μM catalyst, GSNO 25 μM, GSH 100 μM in PBS buffer, FIG. 19A): relatively large signal appears quickly
RSNO decomposition to NO without RSH ([1]; absence of RSH, FIG. 19B): decomposes RSNO to NO even in the absence of RSH

O=C(O)CCCCC[Te][Te]CCCCCC(=O)O [compound 2]
NO generated relative to amount of catalyst used [2]: much more NO than the amount of diorgano ditelluride

Reference: US20090287072A1, “POLYMER COMPOSITIONS, COATINGS AND DEVICES, AND METHODS OF MAKING AND USING THE SAME” (THE REGENTS OF THE UNIVERSITY OF MICHIGAN, priority 2005, published 2009)
